According to patent publication US20170327779A1, “METHOD FOR PRODUCING CELL AGGREGATES” (Kaneka Corporation, priority 2015, published 2017):

Tests used:
Type in all cases: cell-based
[1] = test system: human iPS cells; assay: Effect of LPA or S1P on cell aggregation of human iPS cells in suspension culture, microscopic observation; settings: for φ, width of the widest portion of cell aggregate (average±standard deviation): 1 day, 30 aggregates; for size of spherical cell aggregates: 0.2 μg/mL, BSA-ff 5 mg/mL, Y-27632 10 μM, 1 day suspension culture (FIG. 8)
Procedure: Human iPS cells that had been cultured using the protocol of Example 1 were treated with TrypLE Select, EDTA solution, or Accutase for 3 to 5 min and were detached. After dispersed as single cells, the cells were made to pass through a cell strainer with a pore size of 40 μm (Becton, Dickinson and Company) to monodisperse as single cells. The resulting cells were suspended in Essential 8™ medium containing a final concentration of 10 μM Y-27632 (Wako Pure Chemical Industries, Ltd.). A portion thereof was then stained with trypan blue and the number of cells was counted. Suspensions containing 2×10^5 cells per ml were prepared. To each cell suspension were added lipid-free bovine serum albumin (BSA-ff; CultureSure albumin, Wako Pure Chemical Industries, Ltd.) at a final concentration of 5 mg/mL and Y-27632 (Wako Pure Chemical Industries, Ltd.) at a final concentration of 10 μM. In addition, the following lipids were each added to the cell suspension and the cells were subjected to rotary shaking culture for 1 day under the same conditions as in Example 2 to culture human iPS cells in suspension. After one day of the suspension culture, the cells were observed under a microscope.
The lipids and additives used in this study are as follows: • LPA (Lysophosphatidic acid) (1-O-9Z-octadecenoyl-sn-glyceryl-3-phosphoric acid, a sodium salt, Cat. No. 62215, Cayman, Inc.; with an oleyl group at sn-1 position).
S1P (Sphingosine-1-phosphoric acid) (2S-amino-1-(dihydrogen phosphate)-4E-octadecene-1,3R-diol, Cat. No. 62570, Cayman, Inc.)
LPA at 0.2 μg/mL or S1P at 0.2 μg/mL was added to the human iPS cell suspension.
(§1) Human iPS cell suspensions were prepared using substantially the same protocol as in Example 5. LPA was added as a sodium salt at a concentration of 0.00128 μg/mL, 0.0064 μg/mL, 0.032 μg/mL, 0.16 μg/mL, 0.8 μg/mL, 4 μg/mL, 20 μg/mL, or 100 μg/mL. To each suspension were added BSA-ff at a final concentration of 5 mg/mL and Y-27632 (Wako Pure Chemical Industries, Ltd.) at a final concentration of 10 μM. The cells were cultured in suspension for 1 day under the same conditions as in Example 5 and then observed under a microscope.
Inspected were 30 cell aggregates on an observation image obtained when the concentration of LPA was from 0.16 to 100 μg/mL. While being compared using a micrograph scale, the width (referred to as “φ”) of the widest portion of each cell aggregate was measured to calculate an average±standard deviation.
as §1, with “[…]” for “LPA”, “free form” for “sodium salt”
Inspected were 30 cell aggregates on an observation image obtained when the concentration of S1P was from 0.032 to 100 μg/mL. While being compared using a micrograph scale, the width (referred to as “φ”) of the widest portion of each cell aggregate was measured to calculate an average±standard deviation. […]

[2] = test system: human iPS cells; assay: Glucose consumption and total cell count of human iPS cells cultured in suspension with LPA or S1P; settings: 0.2 or 1 μg/mL, compared with BSA-ff alone; for number of cells (total cell count): Day 5, n=3 (FIG. 13); for glucose consumption: Days 2 to 5, n=3 (FIG. 12)
Procedure: Human iPS cell suspensions were prepared using substantially the same protocol as in Example 5. To each cell suspension were added LPA or S1P at a final concentration of 0.2 μg/mL or 1 μg/mL, and BSA-ff at a final concentration of 5 mg/mL and Y-27632 (Wako Pure Chemical Industries, Ltd.) at a final concentration of 10 μM. As a control, cell suspensions were prepared using the same protocol as in Example 5. That is, prepared were the cell suspensions solely containing BSA-ff at a final concentration of 5 mg/mL and Y-27632 at a final concentration of 10 μM.
The above cell suspensions were subjected to suspension culture for […] under the same conditions as in Example 5. At Day 2 of culture, the culture medium was changed every day with Essential 8™ culture medium supplemented with 5 mg/mL BSA-ff. At Days 2, 3, 4, and 5, the concentration of glucose in the culture supernatant was measured to calculate glucose consumption. In addition, at Day 5 of culture, cell aggregates were collected, dispersed using Accutase, and suspended in Essential 8™ culture medium supplemented with 5 mg/mL BSA-ff. A portion of each cell suspension was stained with trypan blue and the number of cells was counted. The above cell suspensions were centrifuged at 300 g for 5 min, the supernatant was then removed, and the cells were washed with PBS (phosphate buffered saline). Next, the cells were fixed with 4% PFA (paraformaldehyde) at room temperature for 20 min, then washed 3 times with PBS, and permeabilized with cold methanol at −20° C. overnight. After washed 3 times with PBS, the cells were blocked with 3% FBS (fetal calf serum)/PBS and stained using a fluorescently labeled anti-SOX2 antibody (Cat. No. 656110, Biolegend, Inc.) and a fluorescently labeled anti-OCT4 antibody (Cat. No. 653703, Biolegend, Inc.) at 4° C. for 1 h. After washed once with 3% FBS (fetal calf serum)/PBS, the cells were made to pass through a cell strainer. The resulting cells were analyzed on FACSVerse.
The following procedure was used to measure glucose consumption. Specifically, the culture supernatant was recovered at medium change and a bioanalyzer (Y512950), manufactured by YSI, Inc., was used to measure the remaining glucose amount. In this way, the glucose consumption was calculated.
A total cell count was measured at Day 5 of culture. The following procedure was used to measure the total cell count. Specifically, the cell aggregates that had been formed were treated with TrypLE Select for 5 to 10 min, pipetted using a blue tip to monodisperse as cells, and stained with trypan blue. After that, the number of cells was counted using a hemocytometer to determine the total cell count.

[3] = test system: human iPS cells; assay: Formation of aggregates of human iPS cells by rotary shaking suspension culture with KSR or its protein-based components; settings: factor added instead of KSR; micrographs at Day 1 (FIG. 6)
Procedure: TkDN4-M cell line (Non-Patent Literature 1) was used as human iPS cells. The human iPS cells were seeded on cell culture dishes coated with Matrigel (Corning, Inc.) or Vitronectin (Life Technologies Japan Ltd.). A culture medium, which was mTeSR1 (STEMCELL Technologies, Inc.) or Essential 8™ (Life Technologies Japan Ltd.), was used for maintenance culture. As a cell detachment agent at the time of cell passage, TrypLE Select (Life Technologies Japan Ltd.) was used when the cells were cultured on Matrigel; and 0.02% EDTA (ethylene diamine tetraacetic acid) solution or Accutase (Life Technologies Japan Ltd.) was used when the cells were cultured on Vitronectin. In addition, when the cells were seeded, Y-27632 (Wako Pure Chemical Industries, Ltd.) at a concentration of 10 μM was added to a culture medium. The culture medium was changed every day. For experiments, human iPS cells (the number of passage was 50 or less) were used.
Human iPS cells were treated with TrypLE Select or EDTA solution for 3 to 5 min and were detached. After dispersed as single cells, the cells were made to pass through a cell strainer with a pore size of 40 μm (Becton, Dickinson and Company). […] A portion thereof was then stained with trypan blue and the number of cells was counted. […]

Row | Molecule | φ, width of the widest portion of cell aggregate (average±standard deviation) ([1]; 0.16 μg/mL) | size of spherical cell aggregates [1] | φ, width of the widest portion of cell aggregate (average±standard deviation) ([1]; 0.8 μg/mL) | φ, width of the widest portion of cell aggregate (average±standard deviation) ([1]; 4 μg/mL) | φ, width of the widest portion of cell aggregate (average±standard deviation) ([1]; 20 μg/mL) | φ, width of the widest portion of cell aggregate (average±standard deviation) ([1]; 100 μg/mL) | diameter of cell aggregates ([1]; LPA 0.032 μg/mL or less, 1 day (FIG. 9)) | formation of cell aggregates ([1]; LPA 0.16 to 100 μg/mL, 1 day (FIG. 9)) | number of cells (total cell count) [2] | glucose consumption [2] | diameter of cell aggregates ([1]; S1P 0.0064 μg/mL or less, 1 day (FIG. 10)) | formation of cell aggregates ([1]; S1P 0.032 to 100 μg/mL, 1 day (FIG. 10)) | formation of aggregates [3]
1 | 1-O-9Z-octadecenoyl-sn-glyceryl-3-phosphoric acid, a sodium salt [LPA] | 124.9±26.5 μm | about 100 μm | 68.2±9.8 μm | 57.2±8.7 μm | 39.9±8.0 μm | 41.6±9.9 μm | ≥ 1 mm | cell aggregates with a substantially uniform size were formed | larger | larger | – | – | –
2 | CCCCCCCCCCCCC/C=C/[C@@H](O)[C@@H](N)COP(=O)(O)O [S1P, 2S-amino-1-(dihydrogen phosphate)-4E-octadecene-1,3R-diol] | 142.4±16.4 μm | about 100 μm | 118.5±21.8 μm | 109.9±23.1 μm | 94.0±19.4 μm | 89.0±19.5 μm | – | – | larger | larger | ≥ 1 mm | cell aggregates with a substantially uniform size were formed | –
3 | insulin: insulin (Sigma-Aldrich Co. LLC.), lipid-free protein-based component of KSR | – | – | – | – | – | – | – | – | – | – | – | – | large aggregates
4 | transferrin: transferrin (Sigma-Aldrich Co. LLC.), lipid-free protein-based component of KSR | – | – | – | – | – | – | – | – | – | – | – | – | large aggregates
